Patent US5635495A, “Pyrimidine bisphosphonate esters and (alkoxymethylphosphinyl)alkyl phosphonic acids as anti-inflammatories” (The Upjohn Company, priority 1995, dated 1997)

Experiments:
[1] = system: mBSA-induced DTH granuloma (DTH GRA) lesion; experiment: Delayed Type Hypersensitivity Granuloma Assay (DTH GRA) model for inflammation; format: in vivo, mouse; conditions: for % Inhibition Dry Weight: granuloma dry weight; for % Inhibition Dry Weight / % Inhibition Wet Weight: excised after nine days; for % Inhibition Wet Weight: granuloma wet weight
Excerpt: Compounds of Formula 3 and a compound of Formula 2 have been tested in a Delayed Type Hypersensitivity Granuloma Assay (DTH GRA) model for inflammation. This assay is described by Dunn, C. J. et al., "Development of a delayed-type hypersensitivity granuloma model in the mouse for the study of chronic immune-mediated inflammatory disease," Agents and Actions, 27, 3/4 (1989) and "Murine Delayed-Type Hypersensitivity Granuloma," Int. J. Immunopharmc., 12, 8, 899-904 (1990).
Briefly, mBSA-sensitized mice have a DTH granuloma (DTH GRA) lesion induced by subcutaneously implanting a mBSA-soaked filter which is excised after nine days. Compounds are administered to the mice to determine their effect on the lesions. The results are recorded as percent inhibition. […] Inhibition of 10 to 20% is considered to indicate anti-granuloma activity. Greater than 30% inhibition is good activity.
The compound of Formula 2 tested was 1-((ethoxy-methylphosphinyl))-4-(3-methyl-6-phenyl-4(3H)-pyrimidinone-2-yl)-butane phosphonic acid diethyl ester, Example 16 and the DTH GRA data obtained for this compound was 44.4%.

calcium channel = experiment: in vitro model which identifies calcium channel blocking activity (KCl-induced calcium influx, INDO-1, human dermal fibroblasts); format: cell-based; conditions: 40 mM KCl, human dermal fibroblasts CRL 1445
Protocol: These compounds were also tested in an in vitro model which identifies calcium channel blocking activity. In this test, adherent human dermal fibroblasts (CRL 1445, ATCC, Bethesda, Md.) were allowed to attach to glass cover slips placed in 6 well culture plates. Cultures were maintained in DMEM supplemented with antibiotics and 10% fetal bovine serum (FBS) until confluent.
The fibroblasts were washed once with Dulbecco's phosphate buffered saline to remove the culture medium and FBS. The calcium probe, INDO-1 AM ([…]) in RPMI 1640 without phenol red and supplemented with 10 mM hepes and 2 mM glutamine was added to the cells for 1 hour at 37° C. The cells were washed twice with RPMI1640 and remained in this medium until calcium measurements were obtained with the Meridian ACAS digital image microscope.
The cover slip with the attached fibroblasts was placed in a chamber with 1 ml of RPMI on the microscope stage, and maintained at 37° C. The cells were exposed to a laser beam set at 310 nm and fluorescent emission was measured at 485 nm and 405 nm. Baseline resting calcium levels of the fibroblasts were measured for 30 seconds after which 40 mM KCl was added to the medium in the holder. Data was collected at 40 second intervals for a total of 300 to 400 seconds. Maximal calcium influx is usually reached within 40 seconds after the addition of KCl, and begins to slowly decrease to ~50% of the maximal level. The intracellular calcium concentrations remain elevated for at least 400 seconds.
In order to measure the inhibitory effect of the test compounds on changes in intracellular calcium, the compound was added to the cells maintained in RPMI medium for a minimum of 20 minutes before the fibroblast membranes were depolarized with KCl as outlined above. The mean increase in intracellular calcium was then compared to control fibroblasts which had been pretreated for similar lengths of time with DMSO and exposed to KCl. A calcium standard curve was obtained on the day of the experiments in order to generate absolute intracellular calcium concentrations if needed.
Two known calcium channel blockers, D600 and nifedipine were also tested to compare the relative efficacies of the "standard" compounds with the novel diphosphonates. For instance, D600 (available from the Sigma Co., St. Louis, Mo.) inhibited calcium influx into a cell by 83 to 100% at 10^-5 molar concentration. The Control is a sub-structure of Example 9 (k) not having the bisphosphonate teralkyl ester portion.

SMILES | % Inhibition Dry Weight ([1]; 10 mg/kg PO) [%] | % Inhibition Wet Weight ([1]; 10 mg/kg PO) [%] | also measured
CCOP(=O)(OCC)C(CNc1nc(C)cc(Oc2ccc(Cl)cc2Cl)n1)P(=O)(OCC)OCC [(f), (2-((4-2,4-dichlorophenoxy-6-methyl-2-pyrimidinyl)amino)ethylidene)bisphosphonic acid tetraethyl ester] | 39.7 | 45.9 | –
Cc1cc(Oc2c(F)cccc2[N+](=O)[O-])nc(NCC(P2(=O)OCC(C)(C)CO2)P2(=O)OCC(C)(C)CO2)n1 [Ex. 17 (a), (2-((4-(2-fluoro-6-nitrophenoxy)-6-methyl-2-pyrimidinyl)amino)ethylidene)bis(2,2'-(5,5-dimethyl-2,2'-dioxide-1,3,2-dioxaphosphorphinane))] | 39.0 | 47.9 | –
Cc1cc(Oc2ccc(F)cc2F)nc(NCC(P2(=O)OCC(C)(C)CO2)P2(=O)OCC(C)(C)CO2)n1 [Ex. 18 (b), (2-((4-(2,4-difluorophenoxy)-6-methyl-2-pyrimidinyl)amino)ethylidene)bis(2,2'-(5,5-dimethyl-2,2'-dioxide-1,3,2-dioxaphosphorphinane))] | 58.3 | 70.6 | –
Cc1cc(Oc2ccc(C#N)cc2)nc(NCC(P2(=O)OCC(C)(C)CO2)P2(=O)OCC(C)(C)CO2)n1 [Ex. 20 (e), (2-((4-(4-cyanophenoxy)-6-methyl-2-pyrimidinyl)amino)ethylidene)bis(2,2'-(5,5-dimethyl-2,2'-dioxide-1,3,2-dioxaphosphorphinane))] | 41.8 | 27.4 | –
Cc1cc(N2CCOCC2)nc(NCC(P2(=O)OCC(C)(C)CO2)P2(=O)OCC(C)(C)CO2)n1 [Ex. 21 (c), (2-((4-(4-morpholinyl)-6-methyl-2-pyrimidinyl)amino)ethylidene)bis(2,2'-(5,5-dimethyl-2,2'-dioxide-1,3,2-dioxaphosphorphinane))] | 62.5 | 68.6 | –
Cc1cc(Oc2ccc(Br)cc2Br)nc(NCC(P2(=O)OCC(C)(C)CO2)P2(=O)OCC(C)(C)CO2)n1 [Ex. 19 (d), (2-((4-(2-,4-dibromophenoxy)-6-methyl-2-pyrimidinyl)amino)ethylidene)bis(2,2'(5,5-dimethyl-2,2'-dioxide-1,3,2-dioxaphosphorphinane))] | 25.0 | 12.1 | –
Cc1cc(Oc2ccc(Cl)cc2Cl)nc(N)n1 [Control, reference compound] | – | – | % Inhibition Mean SD (calcium channel activity) (calcium channel; 10^-5 M): 12%
COc1cc(C)nc(NCC(P2(=O)OCC(C)(C)CO2)P2(=O)OCC(C)(C)CO2)n1 [Ex. 26 (l), (2((4-(methyl)-6-methoxy-2-pyrimidinyl)amino)ethylidene)bis(2,2'-(5,5-dimethyl-2,2'-dioxide-1,3,2-dioxaphosphorphine))] | 44.8 | 41.9 | –
CCOP(=O)(OCC)C(CNc1nc(C)cc(Oc2ccc(Cl)cc2Cl)n1)P(=O)(OCC)OCC [Ex. 25 (k), (2-((4-(2,4-dichlorophenoxy)-6-methyl-2-pyrimidinyl)amino)ethylidene)bisphosphonic acid, tetraethyl ester] | – | – | % Inhibition Dry Weight ([1]; 100 mg/kg, administered sc): 39.6%; % Inhibition Wet Weight ([1]; 100 mg/kg, administered sc): 40.5%; % Inhibition Mean SD (calcium channel activity) (calcium channel; 10^-5 M): 92 ± 5%; % Inhibition Mean SD (calcium channel activity) (calcium channel; 10^-6 M): 75 ± 9%; % Inhibition Mean SD (calcium channel activity) (calcium channel; 10^-7 M): 35 ± 19%
CCOP(C)(=O)C(CCc1nc(-c2ccccc2)cc(=O)n1C)P(=O)(OCC)OCC (stereo not drawn) [Example 16, 1-(Ethoxymethylphosphinyl)-3-(3-methyl-6-phenyl14(3H)-pyrimidinone-2-yl)-propane phosphonic acid diethyl ester] | – | – | DTH GRA percent inhibition ([1]; dose, route and wet/dry weight not given): 44.4%
